Converted amounts (≈) assume the structure as drawn.
Experiments:
Candida albicans [1] = assay: Fungicidal activity against Candida albicans MTCC 227 after 3 days; type: functional; details: MTCC 227, 72 h
Aspergillus niger [2] = assay: Fungicidal activity against Aspergillus niger MTCC 282 after 3 days; type: functional; details: MTCC 282, 72 h
Escherichia coli [3] = assay: Bactericidal against Escherichia coli MTCC 443 after 3 days; type: functional; details: MTCC 443, 72 h
Klebsiella pneumoniae [4] = assay: Bactericidal activity against Klebsiella pneumoniae MTCC 432 after 3 days; type: functional; details: MTCC 432, 72 h
Staphylococcus aureus [5] = assay: Bactericidal activity against Staphylococcus aureus MTCC 096 after 3 days; type: functional; details: MTCC 096, 72 h
Candida albicans [6] = type: functional, MTCC 227
Candida albicans [7] = assay: Antifungal activity against Candida albicans MTCC 227 after 28 to 30 hr by serial dilution method; type: functional
Aspergillus flavus [8] = assay: Antifungal activity against Aspergillus flavus MTCC 277 at […] to […] ug/ml after 28 to 30 hr by cup-plate method; type: functional
Aspergillus niger [9] = assay: Antifungal activity against Aspergillus niger MTCC 282 at […] to […] ug/ml after 28 to 30 hr by cup-plate method; type: functional
Klebsiella pneumoniae [10] = type: functional, MTCC 432
Aspergillus niger [11] = assay: Antifungal activity against Aspergillus niger MTCC 282 after 28 to 30 hr by serial dilution method; type: functional
Klebsiella pneumoniae [12] = assay: Antibacterial activity against Klebsiella pneumoniae MTCC 432 after 16 to 18 hr by serial dilution method; type: functional
Salmonella typhi [13] = assay: Antibacterial activity against Salmonella enterica subsp. enterica serovar Typhi MTCC 733 at […] to […] ug/ml after 16 to 18 hr by cup-plate method; type: functional
Salmonella typhi [14] = assay: Antibacterial activity against Salmonella enterica subsp. enterica serovar Typhi MTCC 733 after 16 to 18 hr by serial dilution method; type: functional
Pseudomonas aeruginosa [15] = type: functional, MTCC 424
Pseudomonas aeruginosa [16] = assay: Antibacterial activity against Pseudomonas aeruginosa MTCC 424 after 16 to 18 hr by serial dilution method; type: functional
Escherichia coli [17] = assay: Antibacterial activity against Escherichia coli MTCC 443 after 16 to 18 hr by serial dilution method; type: functional
Escherichia coli [18] = type: functional, MTCC 443
Aspergillus flavus [19] = assay: Antifungal activity against Aspergillus flavus MTCC 277 after 28 to 30 hr by serial dilution method; type: functional
Aspergillus fumigatus [20] = assay: Antifungal activity against Aspergillus fumigatus MTCC 343 at […] to […] ug/ml after 28 to 30 hr by cup-plate method; type: functional
Aspergillus fumigatus [21] = assay: Antifungal activity against Aspergillus fumigatus MTCC 343 after 28 to 30 hr by serial dilution method; type: functional
[22] = system: Staphylococcus epidermidis; type: functional, MTCC 435
[23] = system: Staphylococcus epidermidis; assay: Antibacterial activity against Staphylococcus epidermidis MTCC 435 after 16 to 18 hr by serial dilution method; type: functional
Bacillus subtilis [24] = assay: Antibacterial activity against Bacillus subtilis MTCC 441 after 16 to 18 hr by serial dilution method; type: functional
Bacillus subtilis [25] = type: functional, MTCC 441
Staphylococcus aureus [26] = type: functional, MTCC 096
Staphylococcus aureus [27] = assay: Antibacterial activity against Staphylococcus aureus MTCC 096 after 16 to 18 hr by serial dilution method; type: functional

## O=c1cc(OCc2nnc(-c3cccs3)[nH]2)c2ccccc2o1
Candida albicans [1]
  MFC: 12.5 µg/mL (≈ 38.4 µM)
Aspergillus niger [2]
  MFC: 12.5 µg/mL (≈ 38.4 µM)
Escherichia coli [3]
  MBC: 12.5 µg/mL (≈ 38.4 µM)
Klebsiella pneumoniae [4]
  MBC: 25 µg/mL (≈ 76.8 µM)
Staphylococcus aureus [5]
  MBC: 6.25 µg/mL (≈ 19.2 µM)
Candida albicans [6]
  inhibition zone (IZ): 15 mm
Candida albicans [7]
  MIC: 6.25 µg/mL (≈ 19.2 µM)
Aspergillus flavus [8]
  inhibition zone (IZ): 13 mm
Aspergillus niger [9]
  inhibition zone (IZ): 15 mm
Klebsiella pneumoniae [10]
  inhibition zone (IZ): 15 mm
Aspergillus niger [11]
  MIC: 6.25 µg/mL (≈ 19.2 µM)
Klebsiella pneumoniae [12]
  MIC: 6.25 µg/mL (≈ 19.2 µM)
Salmonella typhi [13]
  inhibition zone (IZ): <10 mm
Salmonella typhi [14]
  MIC: 25 µg/mL (≈ 76.8 µM)
Pseudomonas aeruginosa [15]
  inhibition zone (IZ): 12 mm
Pseudomonas aeruginosa [16]
  MIC: 12.5 µg/mL (≈ 38.4 µM)
Escherichia coli [17]
  MIC: 6.25 µg/mL (≈ 19.2 µM)
Escherichia coli [18]
  inhibition zone (IZ): 14 mm
Aspergillus flavus [19]
  MIC: 12.5 µg/mL (≈ 38.4 µM)
Aspergillus fumigatus [20]
  inhibition zone (IZ): 12 mm
Aspergillus fumigatus [21]
  MIC: 12.5 µg/mL (≈ 38.4 µM)
[22]
  inhibition zone (IZ): 11 mm
[23]
  MIC: 12.5 µg/mL (≈ 38.4 µM)
Bacillus subtilis [24]
  MIC: 12.5 µg/mL (≈ 38.4 µM)
Bacillus subtilis [25]
  inhibition zone (IZ): 11 mm
Staphylococcus aureus [26]
  inhibition zone (IZ): 14 mm
Staphylococcus aureus [27]
  MIC: 6.25 µg/mL (≈ 19.2 µM)

## O=c1cc(OCc2nnc(-c3ccco3)[nH]2)c2ccccc2o1
Candida albicans [1]
  MFC: 25 µg/mL (≈ 80.8 µM)
Aspergillus niger [2]
  MFC: 12.5 µg/mL (≈ 40.4 µM)
Escherichia coli [3]
  MBC: 12.5 µg/mL (≈ 40.4 µM)
Klebsiella pneumoniae [4]
  MBC: 25 µg/mL (≈ 80.8 µM)
Staphylococcus aureus [5]
  MBC: 12.5 µg/mL (≈ 40.4 µM)
Candida albicans [6]
  inhibition zone (IZ): 13 mm
Candida albicans [7]
  MIC: 6.25 µg/mL (≈ 20.2 µM)
Aspergillus flavus [8]
  inhibition zone (IZ): 12 mm
Aspergillus niger [9]
  inhibition zone (IZ): 14 mm
Klebsiella pneumoniae [10]
  inhibition zone (IZ): 14 mm
Aspergillus niger [11]
  MIC: 6.25 µg/mL (≈ 20.2 µM)
Klebsiella pneumoniae [12]
  MIC: 6.25 µg/mL (≈ 20.2 µM)
Salmonella typhi [13]
  inhibition zone (IZ): <10 mm
Salmonella typhi [14]
  MIC: 25 µg/mL (≈ 80.8 µM)
Pseudomonas aeruginosa [15]
  inhibition zone (IZ): 11 mm
Pseudomonas aeruginosa [16]
  MIC: 12.5 µg/mL (≈ 40.4 µM)
Escherichia coli [17]
  MIC: 6.25 µg/mL (≈ 20.2 µM)
Escherichia coli [18]
  inhibition zone (IZ): 15 mm
Aspergillus flavus [19]
  MIC: 12.5 µg/mL (≈ 40.4 µM)
Aspergillus fumigatus [20]
  inhibition zone (IZ): <10 mm
Aspergillus fumigatus [21]
  MIC: 25 µg/mL (≈ 80.8 µM)
[22]
  inhibition zone (IZ): <10 mm
[23]
  MIC: 25 µg/mL (≈ 80.8 µM)
Bacillus subtilis [24]
  MIC: 50 µg/mL (≈ 162 µM)
Bacillus subtilis [25]
  inhibition zone (IZ): <10 mm
Staphylococcus aureus [26]
  inhibition zone (IZ): 15 mm
Staphylococcus aureus [27]
  MIC: 6.25 µg/mL (≈ 20.2 µM)

## COc1ccc(-c2nnc(COc3cc(=O)oc4ccccc34)[nH]2)cc1OC
Candida albicans [1]
  MFC: 25 µg/mL (≈ 65.9 µM)
Aspergillus niger [2]
  MFC: 25 µg/mL (≈ 65.9 µM)
Escherichia coli [3]
  MBC: 25 µg/mL (≈ 65.9 µM)
Klebsiella pneumoniae [4]
  MBC: 25 µg/mL (≈ 65.9 µM)
Staphylococcus aureus [5]
  MBC: 12.5 µg/mL (≈ 32.9 µM)
Candida albicans [6]
  inhibition zone (IZ): 15 mm
Candida albicans [7]
  MIC: 6.25 µg/mL (≈ 16.5 µM)
Aspergillus flavus [8]
  inhibition zone (IZ): <10 mm
Aspergillus niger [9]
  inhibition zone (IZ): 13 mm
Klebsiella pneumoniae [10]
  inhibition zone (IZ): 11 mm
Aspergillus niger [11]
  MIC: 6.25 µg/mL (≈ 16.5 µM)
Klebsiella pneumoniae [12]
  MIC: 12.5 µg/mL (≈ 32.9 µM)
Salmonella typhi [13]
  inhibition zone (IZ): 13 mm
Salmonella typhi [14]
  MIC: 6.25 µg/mL (≈ 16.5 µM)
Pseudomonas aeruginosa [15]
  inhibition zone (IZ): <10 mm
Pseudomonas aeruginosa [16]
  MIC: 25 µg/mL (≈ 65.9 µM)
Escherichia coli [17]
  MIC: 25 µg/mL (≈ 65.9 µM)
Escherichia coli [18]
  inhibition zone (IZ): <10 mm
Aspergillus flavus [19]
  MIC: 25 µg/mL (≈ 65.9 µM)
Aspergillus fumigatus [20]
  inhibition zone (IZ): <10 mm
Aspergillus fumigatus [21]
  MIC: 25 µg/mL (≈ 65.9 µM)
[22]
  inhibition zone (IZ): <10 mm
[23]
  MIC: 25 µg/mL (≈ 65.9 µM)
Bacillus subtilis [24]
  MIC: 25 µg/mL (≈ 65.9 µM)
Bacillus subtilis [25]
  inhibition zone (IZ): <10 mm
Staphylococcus aureus [26]
  inhibition zone (IZ): 14 mm
Staphylococcus aureus [27]
  MIC: 6.25 µg/mL (≈ 16.5 µM)

Source: ChEMBL document CHEMBL3045586, “Synthesis and antimicrobial activity of some new 4-triazolylmethoxy-2H-chromen-2-one derivatives” (2012)
